TGI and GI50 data for 19 molecules are collected here from PubChem BioAssay (NCI).

Values joined by “and” are separate entries in the source; they are usually repeats but may differ in a detail not shown here. Equal entries are not always repeated.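 How tested: cells in 96-well plates exposed to compound for 48 hours at five concentrations. Here, GI50 denotes the concentration required for 50% inhibition of growth. TGI marks complete inhibition of growth.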

Some test systems named below: CCRF-CEM leukemia; HCT-116 colon; HS 578T breast; NCI-H522 lung; OVCAR-4 ovarian; SW-620 colon; TK-10 renal; UACC-257 melanoma; SF-539 CNS; SNB-75 CNS.
Test in all cases: NCI tumour cell line growth inhibition, 48 h

For `CC(C)=CC1C(COC(=O)c2ccccc2Cl)C1(C)C` (stereo not given), the TGI in the experiment with CCRF-CEM leukemia is greater than 100 µM; with HCT-116 colon, greater than 100 µM; in the experiment on HS 578T breast, 60.1 µM; with NCI-H522 lung, 49.5 µM; in the experiment with OVCAR-4 ovarian, greater than 100 µM; in the experiment on SW-620 colon, greater than 100 µM. The TGI with TK-10 renal and with UACC-257 melanoma was greater than 100 µM each time.
With `CCN(CC)CCCC(C)Nc1c2ccc(Cl)cc2nc2cc(Cl)ccc12` (stereo not given), the TGI in the experiment on CCRF-CEM leukemia was found to be 7.47 µM; in the experiment on HCT-116 colon, 7.56 µM; with NCI-H522 lung it was 17.5 µM; with OVCAR-4 ovarian it was 9.68 µM; with SF-539 CNS, 15.6 µM; in the experiment on SNB-75 CNS, 22.7 µM. The TGI with SW-620 colon is 12.5 µM; in the experiment on UACC-257 melanoma, 8.87 µM.
Take `CSC1=C(SC)C(=O)c2cn(C)c(=O)cc2C1=O`: the TGI with CCRF-CEM leukemia is 0.826 µM; in the experiment on HCT-116 colon it was 3.33 µM; in the experiment on HS 578T breast, greater than 26.5 µM; in the experiment with NCI-H522 lung, 2.19 µM; in the experiment with OVCAR-4 ovarian, 3.74 µM; in the experiment with SF-539 CNS it was 25.3 µM. Also, the TGI in the experiment on SNB-75 CNS was 22.5 µM; in the experiment on SW-620 colon, 2.58 µM; in the experiment with TK-10 renal, 5.39 µM; in the experiment on UACC-257 melanoma, 7.05 µM.
In the case of `O=S(=O)(Nc1nccs1)c1ccc([As](=O)(O)O)cc1`, the TGI with CCRF-CEM leukemia, in the experiment with HCT-116 colon, in the experiment with HS 578T breast, with NCI-H522 lung, with OVCAR-4 ovarian and with SNB-75 CNS was greater than 100 µM each time. Moreover, the TGI in the experiment with SW-620 colon and in the experiment on TK-10 renal was greater than 100 µM each time.
Regarding `CC(C)C(=O)Nc1ccc(-c2nc(-c3cccc(OCCN4CCOCC4)c3)c(-c3ccnc(Br)c3)[nH]2)cc1`, the GI50 is 3.27 µM with CCRF-CEM leukemia; 3.04 µM in the experiment on HCT-116 colon; 1.04 µM with HS 578T breast; 3.26 µM with NCI-H522 lung; 4.46 µM in the experiment with OVCAR-4 ovarian; 2.3 µM with SF-539 CNS. Moreover, the GI50 is 0.647 µM in the experiment with SNB-75 CNS, 2.87 µM in the experiment on SW-620 colon, 4.32 µM with TK-10 renal and 2.37 µM with UACC-257 melanoma. Also, the TGI in the experiment with CCRF-CEM leukemia was greater than 100 µM; with HCT-116 colon it was 13.5 µM; in the experiment with HS 578T breast, 3.69 µM; in the experiment on NCI-H522 lung, 48.7 µM; with OVCAR-4 ovarian it was greater than 100 µM; in the experiment with SF-539 CNS it was 8.65 µM. Besides, the TGI in the experiment on SNB-75 CNS came out at 4.28 µM; in the experiment on SW-620 colon it was 8.59 µM; in the experiment on TK-10 renal, 31.3 µM; in the experiment with UACC-257 melanoma, 5.68 µM.
Turning to `COc1ccc(N2C(=O)C(=O)N(C)C2=O)c2ccccc12`, the TGI in the experiment on CCRF-CEM leukemia, in the experiment with HCT-116 colon, in the experiment on HS 578T breast, in the experiment with NCI-H522 lung, in the experiment with OVCAR-4 ovarian and with SF-539 CNS was greater than 10 µM throughout. The TGI with SNB-75 CNS, with SW-620 colon and in the experiment with TK-10 renal was greater than 10 µM each time.
In the case of `CC(C(=O)NCCNC(=O)CCCC(=O)N(C)O)C(=O)NCCNC(=O)CCCC(=O)N(C)O`, the TGI with CCRF-CEM leukemia, with HS 578T breast, with NCI-H522 lung, in the experiment on OVCAR-4 ovarian, with SNB-75 CNS and in the experiment with SW-620 colon was greater than 100 µM throughout. The TGI in the experiment with TK-10 renal and with UACC-257 melanoma was greater than 100 µM each time.
On to `CC(=O)Nc1c2sscc-2n(C)c1=O`, for which the TGI with CCRF-CEM leukemia is 1.51 µM; in the experiment with HCT-116 colon it was 1.96 µM; in the experiment with HS 578T breast, 10.3 µM; in the experiment on NCI-H522 lung, 2.65 µM; with OVCAR-4 ovarian, 2.96 µM; in the experiment on SF-539 CNS, 3.52 µM. The TGI is 3.05 µM with SNB-75 CNS, 1.83 µM in the experiment on SW-620 colon, 4.83 µM in the experiment on TK-10 renal and 2.97 µM in the experiment on UACC-257 melanoma.
Turning to `CC[C@@]1(O)C(=O)OCc2c1cc1n(c2=O)Cc2cc3c(CN(C)C)c(O)ccc3nc2-1`, the GI50 in the experiment with CCRF-CEM leukemia is < 0.01 µM and 0.0032 µM; with HCT-116 colon, 0.0681 µM; in the experiment on HS 578T breast it was 1.27 µM and 5.8 µM and 1.88 µM; with NCI-H522 lung it was < 0.025 µM and 0.0206 µM and 0.0416 µM; in the experiment on OVCAR-4 ovarian, 0.319 µM and 0.812 µM and 0.571 µM; with SF-539 CNS, < 0.01 µM and 0.00383 µM and 0.0215 µM. The GI50 in the experiment on UACC-257 melanoma is 0.106 µM and 0.0677 µM and 0.297 µM. Also, the TGI is 18.9 µM and 11.7 µM with HCT-116 colon; 96.6 µM and 12.2 µM and 39.6 µM with HS 578T breast; 14.2 µM and 64.8 µM and 88.7 µM in the experiment with TK-10 renal.
For the molecule `COC1=CC(=O)c2c(c(COC(C)=O)cn2C)C1=O`, the TGI in the experiment with CCRF-CEM leukemia is 0.71 µM; in the experiment on HCT-116 colon, 0.216 µM; in the experiment with NCI-H522 lung it was 0.0405 µM; in the experiment on OVCAR-4 ovarian, 1.04 µM; in the experiment on SF-539 CNS, 0.313 µM; with SNB-75 CNS, 0.88 µM. Further, the TGI with SW-620 colon turned out to be 0.193 µM; in the experiment on TK-10 renal, 0.207 µM; with UACC-257 melanoma, 1.43 µM.
In the case of `OC(c1ccccc1)C1CC2C=CC1C2` (stereo not given), the TGI in the experiment on CCRF-CEM leukemia, in the experiment with HCT-116 colon, in the experiment on NCI-H522 lung, in the experiment on OVCAR-4 ovarian, in the experiment on SF-539 CNS and with SNB-75 CNS was greater than 100 µM in each case. The TGI in the experiment with SW-620 colon, with TK-10 renal and in the experiment with UACC-257 melanoma was greater than 100 µM throughout.
On to `CC1(CO)C(O)CCC2(C)C1C(O)CC1CC3CC12CCC3(O)CO` (stereo not given), for which the TGI in the experiment with CCRF-CEM leukemia, in the experiment on HCT-116 colon, in the experiment on NCI-H522 lung, in the experiment with OVCAR-4 ovarian, in the experiment on SF-539 CNS and in the experiment on SNB-75 CNS was greater than 225 µM throughout. The TGI with SW-620 colon and in the experiment with UACC-257 melanoma was greater than 225 µM each time.
Consider `O=[N+]([O-])c1ccc(Cc2nc3cc4ccccc4cc3[nH]2)cc1C(F)(F)F`, for which the TGI was greater than 100 µM in the experiment on CCRF-CEM leukemia; 26.8 µM in the experiment on HCT-116 colon; 49.9 µM with HS 578T breast; 70.6 µM with NCI-H522 lung; 46.8 µM in the experiment with OVCAR-4 ovarian; 39.1 µM with SF-539 CNS. Further, the TGI in the experiment on SNB-75 CNS was found to be 37.3 µM; with SW-620 colon, 62.2 µM; in the experiment on TK-10 renal, 35.8 µM; with UACC-257 melanoma, 29.5 µM.
Consider `O=[N+]([O-])c1ccc(NNN=Nc2ccc(-c3nc4ccccc4[nH]3)cc2)c([N+](=O)[O-])c1`, for which the TGI in the experiment with CCRF-CEM leukemia is greater than 100 µM; in the experiment with HCT-116 colon, greater than 100 µM; in the experiment on HS 578T breast it was greater than 100 µM; in the experiment on NCI-H522 lung it was 61 µM; in the experiment on OVCAR-4 ovarian, greater than 100 µM; in the experiment on SF-539 CNS, greater than 100 µM. In addition, the TGI with SNB-75 CNS, with SW-620 colon, with TK-10 renal and with UACC-257 melanoma was greater than 100 µM throughout.
Take `O=c1ccc2c(Cl)cccc2o1`: the TGI in the experiment on CCRF-CEM leukemia, in the experiment on HCT-116 colon, with HS 578T breast, in the experiment on NCI-H522 lung, with OVCAR-4 ovarian and with SF-539 CNS was greater than 100 µM each time. Moreover, the TGI with SNB-75 CNS, in the experiment on SW-620 colon, in the experiment with TK-10 renal and with UACC-257 melanoma was greater than 100 µM in each case.
`CN(CC(=O)O)CC(=O)O`: the TGI in the experiment with CCRF-CEM leukemia, with HCT-116 colon, in the experiment with HS 578T breast, in the experiment with NCI-H522 lung, in the experiment on OVCAR-4 ovarian and in the experiment on SF-539 CNS was greater than 100 µM each time. In addition, the TGI in the experiment with SNB-75 CNS, with SW-620 colon, in the experiment on TK-10 renal and with UACC-257 melanoma was greater than 100 µM in each case.
Take `Clc1ccc(OCc2nnc3sc(SSc4nn5c(COc6ccc(Cl)cc6)nnc5s4)nn23)cc1`: the GI50 is 76.7 µM in the experiment with CCRF-CEM leukemia, 46.7 µM with OVCAR-4 ovarian and 73.2 µM with TK-10 renal. Further, the TGI with CCRF-CEM leukemia, in the experiment on HCT-116 colon, with HS 578T breast, with NCI-H522 lung, in the experiment on OVCAR-4 ovarian and in the experiment on SF-539 CNS was greater than 100 µM in each case. In addition, the TGI in the experiment on SNB-75 CNS, with SW-620 colon, in the experiment with TK-10 renal and in the experiment on UACC-257 melanoma was greater than 100 µM throughout.
On to `Fc1ccc(Nc2ncc(-c3cc(F)c(Cl)cc3Cl)s2)cc1Cl`, for which the GI50 was 2.82 µM in the experiment with HCT-116 colon; 11.5 µM in the experiment with HS 578T breast; 20.8 µM in the experiment on NCI-H522 lung; 26.5 µM in the experiment on OVCAR-4 ovarian; 10.5 µM in the experiment with SF-539 CNS; 39.3 µM with SNB-75 CNS. Also, the GI50 is 5.47 µM in the experiment with SW-620 colon, 8.05 µM with TK-10 renal and 14.3 µM with UACC-257 melanoma. Also, the TGI in the experiment with HCT-116 colon is 7.2 µM; with HS 578T breast, 36.4 µM; in the experiment on NCI-H522 lung it was 44.3 µM; with OVCAR-4 ovarian, greater than 100 µM; in the experiment on SF-539 CNS it was 32.5 µM; in the experiment on SNB-75 CNS, greater than 100 µM. In addition, the TGI stood at 24.9 µM in the experiment on SW-620 colon, 21.8 µM in the experiment with TK-10 renal and 29.2 µM in the experiment on UACC-257 melanoma.
As for `C1=Nc2ccccc2Cn2nncc21`, the TGI in the experiment on CCRF-CEM leukemia, in the experiment with HCT-116 colon, in the experiment on NCI-H522 lung, in the experiment on OVCAR-4 ovarian, in the experiment with SF-539 CNS and with SW-620 colon was greater than 100 µM throughout. The same molecule gave a TGI in the experiment on TK-10 renal greater than 100 µM.
